Paper PMC8280143, “A novel dephosphorylation targeting chimera selectively promoting tau removal in tauopathies” (Signal Transduction and Targeted Therapy, 2021)
No end group written: not given here. *: point of attachment. FITC = O=C1OC2(c3ccc(O)cc3Oc3cc(O)ccc32)c2ccc(NC(=S)*)cc21

Key:
[1] = test system: glycogen synthase kinase-3; details: cited from earlier work
From the text: (§1) By contrast, small-molecular kinase inhibitors or phosphatase enhancers generally lack specificity. […] This might bring unacceptable side-effects in the clinic. Importantly, the principle of DEPTAC can be used in future studies to design alternative chimeras specifically targeting many other types of post-tr ...

[2] = test system: inositol monophosphatase; details: cited from earlier work
From the text: as §1

[3] = test system: tau; details: cited from earlier work
From the text: as §1

[4] = test system: human tau; assay: Fluorescence polarization binding assay, tau; details: 0.1 μM FITC-labeled DEPTAC; serial dilutions of tau; 20 mM Tris-HCl, 150 mM NaCl, 0.5 mM DTT, pH 7.4; 37 °C, 30 min
Protocol: (§2) Purified human tau and PP2A-Bα (PPP2R1A) were obtained from AtaGenix (Wuhan, China), and concentrated using ultrafiltration tubes (Beyotime). In basic binding assays, tau or PP2A-Bα was aliquoted into serial dilutions with a buffer containing 20 mM Tris-HCl, 150 mM NaCl, and 0.5 mM 1,4-Dithiothreitol (pH 7.4), and incubated with 0.1 μM FITC-labeled DEPTAC, FITC-labeled control peptide and FITC (9:1 vol/vol), respectively, in a black 384-well plates (Corning) under 37 °C for 30 min. In competition binding assays, a mixture of 2.5 μM tau or PP2A-Bα and 0.1 μM FITC-labeled DEPTAC were incubated with increasing amounts of unlabeled-DEPTAC under 37 °C for 30 min. Fluorescence intensity was measured by a Biotek Synergy 2 microplate reader with the wavelengths of 480 nm (60) (Ex)/560 nm (40) (Em). The polarization measurements were corrected for background contributions to the measured intensity by subtracting the parallel and perpendicular intensity readings by the vehicle-only wells from the intensity readings for each data point. Fluorescence polarization (P) was calculated by the formula P = (I║ − I┴) / (I║ + I┴), where I║ was the intensity of emitted light polarized parallel to the excitation light, and I┴ was the intensity of emitted light polarized perpendicular to the excitation light.

[5] = test system: PP2A-Bα (PPP2R1A); assay: Fluorescence polarization binding assay, PP2A-Bα; set-up: species or system human; details: 0.1 μM FITC-labeled DEPTAC; serial dilutions of PP2A-Bα; 20 mM Tris-HCl, 150 mM NaCl, 0.5 mM DTT, pH 7.4; 37 °C, 30 min
Protocol: as §2

Compound | action on glycogen synthase kinase-3 [1] | action on inositol monophosphatase [2] | suppression of tau hyperphosphorylation [3] | FITC-DEPTAC fluorescence polarization with increased amount of tau [4] | FITC-DEPTAC fluorescence polarization with increased amount of PP2A-Bα [5]
[Li] [lithium] | acts on other targets | acts on other targets | suppress tau hyperphosphorylation | – | –
FITC-DEPTAC: For tracing the chimera, a fluorescein FITC was conjugated at the K18 residue (YQQYQDATADEQGGSGSK(FITC)KVAVVRTPPKSPRRRRRRRR) | – | – | – | sigmoidal increases | sigmoidal increases
